The values below come from patent publication US20170313674A1, “BENZYLHYDROXIDE DERIVATIVES, PREPARATION THEREOF AND THERAPEUTIC USE THEREOF” (SANOFI, priority 2014, published 2017).

Read-outs that look alike come from different tables or passages of the source.

Test [1] concerns HIF-1a. The test is described as follows: Western blot model: HIF1-a stabilization in Hep3b cells under hypoxia. The format is cell-based. As to conditions: hypoxia 1% O2, 6 hours; for Western Blot (range of decrease of HIF1-a stabilization): class symbol. As to the method:
Since it was sought to determine the efficacy of the compounds to inhibit HIF1a stabilization under hypoxia, the compounds according to the invention underwent biochemical studies in order to determine their capacity to decrease HIF stabilization in Hep3b cells under hypoxia (western blot model).
Hep3B cells are seeded at a rate of 300000 cells per well in 6-wells culture plate in 2 ml of MEM supplemented with glutamin (2 mM) and 10% FCS (foetal calf serum) and incubated at 37° C. in the presence of 5% CO2. The next day, the cells are placed in contact with the compound and an incubation under hypoxia at 1% O2 is carried out at 37° C. in 95% humidity and 5% CO2 in a sealed anaerobic workstation (Hypoxystation H35-Don Whitley—AES Chemunex) during 6 hours.
Cells were washed (PBS) and lysed in SDS sample buffer. Proteins (25 μg) were separated on 4-12% Bis-Tris gels and transferred onto polyvinylidene difluoride membranes (Millipore). Membranes were blotted with a mouse monoclonal antibody to HIF-1a (BD transduction) and a mouse monoclonal anti-βactin (Sigma). Immunoreactive bands were detected with a horse radish peroxydase (HRP) anti-mouse antibody (Sigma) by enhanced chemiluminescence (Promega).
The inhibitory activity of the compounds for their capacity to decrease HIF1-a stabilization in Hep3b under hypoxia is expressed as range of percentage relative to control with: […]

Test [2] relates to mitochondrial ATP production on non-small cell lung carcinoma cell lines NCI-H460. The test is described as follows: Mitochondrial ATP analysis (Cell Titer Glo) in NCI-H460 cells. The format is cell-based. The note with it: 1-hour incubation, with sodium iodoacetate (100 μM), concentration inhibiting 50% of mitochondrial ATP production, read-out: IC50 (mito ATP). The protocol:
In order to evaluate the inhibitory activity of the all compounds, an in vitro assay was developed which read out is directly linked to mitochondrial complex 1 inhibition. Since mitochondrial complex 1 contributes to the formation of membrane potential coupled to the mitochondrial ATP synthesis, complex 1 inhibition directly leads in cells to the inhibition of mitochondrial ATP production. Cellular ATP contents were measured in presence of either glycolysis inhibitor (sodium iodocetate) and/or mitochondrial inhibitors (F0F1-ATPase inhibitor: oligomycin or mitochondrial uncoupler: FCCP) to determine the ATP production part relying either on glycolytic or on mitochondrial metabolism.
Mitochondrial ATP Analysis
The compounds of the invention were evaluated for their ability to inhibit mitochondrial
ATP was measured using the Promega Cell Titer Glo kit and protocol. In summary, 1,000 cells were plated in 40 μL in a 384 well plate. 24 hours later, medium was replaced by 20 μl culture medium in presence of compounds: cells were treated in replicates of five with control (PBS), oligomycin A (10 μg/ml), FCCP (30 μM), or the compounds of the invention in dose effect both alone or in combination with sodium iodoacetate (100 μM). Following a 1-hour incubation, 20 μL of CellTtiter-glo™ reaction mix were added to each well for a final volume of 40 μL. Plates were then analyzed for luminescence with a Perkin Elmer EnVision. By comparing the different conditions, global ATP and percentages of both glycolytic and mitochondrial ATP were determined.
The mitochondrial ATP production was calculated as the remaining ATP under iodoacetate treatment minus basal ATP (ATP content under iodoacetate and oligomycin treatment). Inhibitory activity of the compounds on mitochondrial ATP in NCI-H460 cells is expressed as the concentration needed to inhibit 50% of mitochondrial ATP production (IC50, M).

With `COc1ccc(C(O)C(C)Oc2ccc(-c3csc(-c4ccc(OC(C)C(O)c5ccc(OC)c(OC)c5)cc4)n3)cc2)cc1OC` (single isomer, unassigned) [Compound I-32, 1-(3,4-dimethoxyphenyl)-2-[4-[2-[4-[2-(3,4-dimethoxyphenyl)-2-hydroxy-1-methyl-ethoxy]phenyl]thiazol-4-yl]phenoxy]propan-1-ol], in test [1], the “Western Blot (decrease of HIF1-a stabilization, percentage relative to control)” value worked out at 45% and the “Western Blot (range of decrease of HIF1-a stabilization)” value was “* (* represents a decrease of HIF-a stabilization between 30 to 50%)”. In addition, in test [2], the IC50 came out at 0.0476 µM.
Regarding `COc1ccc(C(O)C(C)(C)Oc2ccc(-c3nc(-c4ccc(OC(C)(C)C(O)c5ccc(OC)c(OC)c5)cc4)c(C)s3)cc2)cc1OC` (single isomer, unassigned) [Compound I-9, 1-(3,4-dimethoxyphenyl)-2-[4-[2-[4-[2-(3,4-dimethoxyphenyl)-2-hydroxy-1,1-dimethyl-ethoxy]phenyl]-5-methyl-thiazol-4-yl]phenoxy]-2-methyl-propan-1-ol], in test [1], the “Western Blot (decrease of HIF1-a stabilization, percentage relative to control)” value is listed as 58.5% and the “Western Blot (range of decrease of HIF1-a stabilization)” value was “** (** represents a decrease of HIF-a stabilization between 50 to 70%)”. For the same compound, in test [2] (Homo sapiens, NCI-H460, 1 h), the IC50 is 0.00386 µM.
The corresponding values for `COc1ccc(C(O)C(C)(C)Oc2ccc(-c3nsc(-c4ccc(OC(C)(C)C(O)c5ccc(OC)c(OC)c5)cc4)n3)cc2)cc1OC` (single isomer, unassigned) [Compound I-43, 1-(3,4-dimethoxyphenyl)-2-[4-[5-[4-[2-(3,4-dimethoxyphenyl)-2-hydroxy-1,1-dimethyl-ethoxy]phenyl]-1,2,4-thiadiazol-3-yl]phenoxy]-2-methyl-propan-1-ol] are 32%, “* (* represents a decrease of HIF-a stabilization between 30 to 50%)” and 0.037 µM.
For `COc1ccc(C(O)COc2ccc(-c3noc(-c4ccc(OCC(O)c5ccc(OC)c(OC)c5)cc4)n3)cc2)cc1OC` (single isomer, unassigned) [Compound I-47, 1-(3,4-dimethoxyphenyl)-2-[4-[5-[4-[2-(3,4-dimethoxyphenyl)-2-hydroxy-ethoxy]phenyl]-1,2,4-oxadiazol-3-yl]phenoxy]ethanol] the same measures were 51%, “** (** represents a decrease of HIF-a stabilization between 50 to 70%)” and greater than 10 µM.
Consider `COc1ccc(C(O)C(C)(C)Oc2ccc(-c3nsc(-c4ccc(OC(C)(C)C(O)c5ccc(OC)c(OC)c5)cc4)n3)cc2)cc1OC` (single isomer, unassigned) [Compound I-44, 1-(3,4-dimethoxyphenyl)-2-[4-[5-[4-[2-(3,4-dimethoxyphenyl)-2-hydroxy-1,1-dimethyl-ethoxy]phenyl]-1,2,4-thiadiazol-3-yl]phenoxy]-2-methyl-propan-1-ol], for which, in test [1], the “Western Blot (decrease of HIF1-a stabilization, percentage relative to control)” value is 45% and the “Western Blot (range of decrease of HIF1-a stabilization)” value was “* (* represents a decrease of HIF-a stabilization between 30 to 50%)”. In test [2], the IC50 is 0.0544 µM.
On to `COc1ccc(C(O)C(C)(C)Oc2ccc(-c3cn(C)c(-c4ccc(OC(C)(C)C(O)c5ccc(OC)c(OC)c5)cc4)n3)cc2)cc1OC` (stereo not drawn) [Compound I-57, 1-(3,4-dimethoxyphenyl)-2-[4-[2-[4-[2-(3,4-dimethoxyphenyl)-2-hydroxy-1,1-dimethyl-ethoxy]phenyl]-1-methyl-imidazol-4-yl]phenoxy]-2-methyl-propan-1-ol], for which, in test [1], the “Western Blot (decrease of HIF1-a stabilization, percentage relative to control)” value is on record as 18% and the “Western Blot (range of decrease of HIF1-a stabilization)” value was “− (− represents a decrease of HIF1-a stabilization is less than 30%)”. For the same compound, the 50% inhibitory concentration (IC50) in test [2] (Homo sapiens, NCI-H460, 1 h) came out at 0.0519 µM.
In the case of `COc1ccc(C(O)C(C)Oc2ccc(-c3csc(-c4ccc(OC(C)C(O)c5ccc(OC)c(OC)c5)cc4)n3)cc2)cc1OC` (single isomer, unassigned) [Compound I-33, 1-(3,4-dimethoxyphenyl)-2-[4-[2-[4-[2-(3,4-dimethoxyphenyl)-2-hydroxy-1-methyl-ethoxy]phenyl]thiazol-4-yl]phenoxy]propan-1-ol], in test [1], the “Western Blot (decrease of HIF1-a stabilization, percentage relative to control)” value worked out at 52% and the “Western Blot (range of decrease of HIF1-a stabilization)” value is recorded as “* (* represents a decrease of HIF-a stabilization between 30 to 50%)”. Also, the half-maximal inhibitory concentration (IC50) in test [2] was 0.0301 µM.
For `COc1ccc(C(O)COc2ccc(-c3csc(-c4ccc(OCC(O)c5ccc(OC)c(OC)c5)cc4)n3)cc2)cc1OC` (single isomer, unassigned) [Compound I-25, 1-(3,4-dimethoxyphenyl)-2-[4-[2-[4-[2-(3,4-dimethoxyphenyl)-2-hydroxy-ethoxy]phenyl]thiazol-4-yl]phenoxy]ethanol] the same measures were 41%, “* (* represents a decrease of HIF-a stabilization between 30 to 50%)” and 0.195 µM.
As to `COc1ccc(C(O)COc2ccc(-c3coc(-c4ccc(OCC(O)c5ccc(OC)c(OC)c5)cc4)n3)cc2)cc1OC` (single isomer, unassigned) [Compound I-14, 1-(3,4-dimethoxyphenyl)-2-[4-[2-[4-[2-(3,4-dimethoxyphenyl)-2-hydroxy-ethoxy]phenyl]oxazol-4-yl]phenoxy]ethanol], in test [1], the “Western Blot (decrease of HIF1-a stabilization, percentage relative to control)” value came to 59% and the “Western Blot (range of decrease of HIF1-a stabilization)” value was “** (** represents a decrease of HIF-a stabilization between 50 to 70%)”. Moreover, in test [2], the IC50 turned out to be 0.679 µM.
For `COc1ccc(C(O)C(C)(C)Oc2ccc(-c3c[nH]c(-c4ccc(OC(C)(C)C(O)c5ccc(OC)c(OC)c5)cc4)n3)cc2)cc1OC` (single isomer, unassigned) [Compound I-56, 1-(3,4-dimethoxyphenyl)-2-[4-[2-[4-[2-(3,4-dimethoxyphenyl)-2-hydroxy-1,1-dimethyl-ethoxy]phenyl]-1H-imidazol-4-yl]phenoxy]-2-methyl-propan-1-ol] the same measures were 75%, “*** (*** represents a decrease of HIF-a stabilization higher than 70%)” and 0.76 µM.
The corresponding values for `COc1ccc(C(O)COc2ccc(-c3csc(-c4ccc(OC(C)(C)C(O)c5ccc(OC)c(OC)c5)cc4)n3)cc2)cc1OC` (single isomer, unassigned) [Compound I-66, 1-(3,4-dimethoxyphenyl)-2-[4-[4-[4-[2-(3,4-dimethoxyphenyl)-2-hydroxy-ethoxy]phenyl]thiazol-2-yl]phenoxy]-2-methyl-propan-1-ol] are 54%, “** (** represents a decrease of HIF-a stabilization between 50 to 70%)” and 0.0265 µM.
Take `COc1ccc(C(O)COc2ccc(-c3cn(C)c(-c4ccc(OCC(O)c5ccc(OC)c(OC)c5)cc4)n3)cc2)cc1OC` (stereo not drawn) [Compound I-58, 1-(3,4-dimethoxyphenyl)-2-[4-[2-[4-[2-(3,4-dimethoxyphenyl)-2-hydroxy-ethoxy]phenyl]-1-methyl-imidazol-4-yl]phenoxy]ethanol]: in test [1], the “Western Blot (decrease of HIF1-a stabilization, percentage relative to control)” value was 56% and the “Western Blot (range of decrease of HIF1-a stabilization)” value is on record as “** (** represents a decrease of HIF-a stabilization between 50 to 70%)”. Further, the concentration for half-maximal inhibition (IC50) in test [2] (Homo sapiens, NCI-H460, 1 h) was 0.458 µM.
For `COc1ccc(C(O)COc2ccc(-c3csc(-c4ccc(OC(C)(C)C(O)c5ccc(OC)c(OC)c5)cc4)n3)cc2)cc1OC` (single isomer, unassigned) [Compound I-65, 1-(3,4-dimethoxyphenyl)-2-[4-[4-[4-[2-(3,4-dimethoxyphenyl)-2-hydroxy-ethoxy]phenyl]thiazol-2-yl]phenoxy]-2-methyl-propan-1-ol] the same measures were 41%, “* (* represents a decrease of HIF-a stabilization between 30 to 50%)” and 0.0238 µM.
